Source: patent US9290517B2, “Azabenzimidazole hexahydrofuro[3,2-b]furan derivatives” (Merck Sharp & Dohme Corp., priority 2012, dated 2016)

Assays:
[1] = test system: ob/ob and db/db mice; conditions: following 8 weeks of administration; cited from earlier work
[2] = target: recombinant human AMPK complex 7 (containing α2β1γ1) (Homo sapiens (Human), UniProt P54646+Q9Y478); assay: in vitro AMPK activation assay (AMPKSAMSF), complex 7; type: biochemical; conditions: for Emax: 10-point titration, expressed as % maximum AMP activation; for EC50: inflection point reflecting 50% of the maximum activation, table head names AMPK complex 7
Procedure: AMPKSAMSF (in vitro AMPK activation assay)
The recombinant human AMPK complex 1 (containing α1β1γ1) or AMPK complex 7 (containing α2β1γ1) was obtained from baculovirus expression system. Recombinant viruses were generated by cotransfection of AMPK/pBacPak9 clones with Baculogold baculovirus DNA (Pharmingen) in spodoptera frugiperda 21 cells according to the manufacturer's instructions. Each round of virus amplification was performed for 5 days in Grace's medium containing 10% serum. Virus that had been subjected to three rounds of amplification was used for all protein production procedures. To express the AMPK complex, sf21 cells were adapted to serum free medium (SF900II, Invitrogen) by sequential dilution from serum containing stocks into SF900II medium and maintained in shaker flasks at 90 rpm at 27° C. The recombinant AMPK enzyme complex was produced by triple infection, one recombinant virus for each of the subunits, in sf21 cells under serum free conditions. Cells were infected in log phase, 1×10^6 cells/ml, at a multiplicity of infection of 5. Cells were harvested by centrifugation at 10,000×g for 15 minutes after 72 hours of infection with viruses. The insect cell pellet from 2 liters of culture was resuspended in 50 ml lysis buffer (20 mM Tris-HCl, 50 mM NaCl, 50 mM NaF, 30 mM Na PPi, 0.25 M sucrose, 10 mM ZnCl2, 2 mM DTT, 0.4 mg/ml digitonin) and subjected to two cycles of freeze-thaw lysis in a dry-ice ethanol bath. Insoluble material was removed by centrifugation at 10,000×g and the supernatant was fractionated with use of polyethylene glycol (PEG). The protein fraction precipitating between 2.5 and 6% PEG was used for further purification using a Blue-Sepharose step (Zhou et al, J. Clin. Invest. 108, 1167-1174, 2001).
The in vitro AMPK activation assay is performed in a volume of 30 μl in a 384-well plate. Enzyme reactions were assembled in the microtiter plate by adding 15 μl of 2× enzyme in assay buffer (20 mM HEPES, pH 7.3, 5 mM MgCl2, 3 mM DTT, 0.01% Brij 35 and CamK Kinase, to activate AMPK) to wells which contained either DMSO or compound. The reaction was initiated with the addition of 15 μl 2× substrate mixture containing 200 μM ATP, and 3.0 μM fluorescently labeled SAMS (5-FAM-HMRSAMSGLHLVKRR-COOH) in assay buffer. After 45-minute incubation at 25° C., the reaction was stopped by the addition of 70 μl stop buffer (100 mM HEPES, pH 7.3, 40 mM EDTA, 0.015% Brij 35). Phosphorylated 5-FAM SAMS product is assessed using a Caliper EZ Reader LabChip microfluidics reader. Product conversion is determined by calculating the peak heights of the substrate and product and reporting the product/(product+substrate) peak ratio. The 10-point titration data were expressed as % maximum AMP activation. The results were plotted using 4 parameter fit and the inflection point reflecting 50% of the maximum activation was reported as the EC50.

Sequence of recombinant human AMPK complex 7 (containing α2β1γ1) (P54646 whole entry): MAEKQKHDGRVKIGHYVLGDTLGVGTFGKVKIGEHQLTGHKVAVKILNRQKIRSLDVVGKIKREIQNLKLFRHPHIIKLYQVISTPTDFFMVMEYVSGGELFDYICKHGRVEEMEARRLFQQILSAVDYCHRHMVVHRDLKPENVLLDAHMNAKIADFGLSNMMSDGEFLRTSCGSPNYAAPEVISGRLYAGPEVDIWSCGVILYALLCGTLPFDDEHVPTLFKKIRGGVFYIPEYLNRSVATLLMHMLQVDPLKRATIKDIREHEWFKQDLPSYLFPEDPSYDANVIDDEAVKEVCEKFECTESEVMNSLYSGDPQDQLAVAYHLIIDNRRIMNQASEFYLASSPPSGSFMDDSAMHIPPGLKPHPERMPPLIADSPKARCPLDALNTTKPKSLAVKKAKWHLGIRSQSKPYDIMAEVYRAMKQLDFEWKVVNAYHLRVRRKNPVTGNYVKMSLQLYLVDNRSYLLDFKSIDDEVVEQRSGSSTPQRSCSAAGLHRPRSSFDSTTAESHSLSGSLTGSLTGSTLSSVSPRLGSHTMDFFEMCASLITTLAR
Sequence of recombinant human AMPK complex 7 (containing α2β1γ1) (Q9Y478 whole entry): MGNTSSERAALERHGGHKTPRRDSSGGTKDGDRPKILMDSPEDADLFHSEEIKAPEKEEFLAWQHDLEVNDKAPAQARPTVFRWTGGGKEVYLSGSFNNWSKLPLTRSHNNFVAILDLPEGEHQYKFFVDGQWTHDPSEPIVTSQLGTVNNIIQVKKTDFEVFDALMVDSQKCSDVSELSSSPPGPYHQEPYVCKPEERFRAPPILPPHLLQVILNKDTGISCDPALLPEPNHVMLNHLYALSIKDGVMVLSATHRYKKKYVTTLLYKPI
Sequence of recombinant human AMPK complex 7 (containing α2β1γ1) (P54619 whole entry partner): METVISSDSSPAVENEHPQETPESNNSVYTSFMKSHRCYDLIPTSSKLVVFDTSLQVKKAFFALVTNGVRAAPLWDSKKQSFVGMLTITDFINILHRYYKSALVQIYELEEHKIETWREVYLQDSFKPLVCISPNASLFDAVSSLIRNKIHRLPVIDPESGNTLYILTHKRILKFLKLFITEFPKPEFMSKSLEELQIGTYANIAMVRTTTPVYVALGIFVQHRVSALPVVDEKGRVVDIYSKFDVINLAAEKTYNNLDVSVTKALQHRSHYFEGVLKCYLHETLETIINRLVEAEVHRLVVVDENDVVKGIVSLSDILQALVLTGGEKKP

NC(=O)c1ncn([C@@H]2O[C@H](CO)[C@@H](O)[C@H]2O)c1N [AICAR]
blood glucose reduction [1]: 35%

CC(C)(O)CN1Cc2cn(-c3ccc(-c4nc5nc(O[C@@H]6CO[C@H]7[C@@H]6OC[C@H]7O)[nH]c5cc4Cl)cc3)nc2C1 [Example 14, (3R,3aR,6R,6aR)-6-[[6-chloro-5-[4-[5-(2-hydroxy-2-methyl-propyl)-5,6-dihydro-4H-pyrrolo[3,4-c]pyrazol-5-ium-2-yl]phenyl]-1H-imidazo[4,5-b]pyridin-2-yl]oxy]-2,3,3a,5,6,6a-hexahydrofuro[3,2-b]furan-3-ol; 2,2,2-trifluoroacetate]
Emax [2]: 276%
EC50 [2]: 29 nM

C=CCO[C@@H]1CO[C@H]2[C@@H]1OC[C@H]2Oc1nc2nc(-c3ccc(-c4ccccc4)cc3)c(Cl)cc2[nH]1 [Example 18]
Emax [2]: 72%
EC50 [2]: 6 nM

O[C@@H]1CO[C@H]2[C@@H]1OC[C@H]2Oc1nc2nc(-c3ccc(C#CC4CCNCC4)cc3)c(Cl)cc2[nH]1 [Example 71]
Emax [2]: 420%
EC50 [2]: 10 nM

O=c1[nH]ccn1-c1ccc(-c2ccc(-c3nc4nc(O[C@@H]5CO[C@H]6[C@@H]5OC[C@H]6O)[nH]c4cc3Cl)cc2)cc1 [Example 73]
Emax [2]: 357%
EC50 [2]: 4 nM

CC(CO)(CO)c1ccc(-c2ccc(-c3nc4nc(O[C@@H]5CO[C@H]6[C@@H]5OC[C@H]6O)[nH]c4cc3Cl)cc2)cc1 [Example 79]
Emax [2]: 337%
EC50 [2]: 2 nM

O=C(O)CCCc1ccc(-c2ccc(-c3nc4nc(O[C@@H]5CO[C@H]6[C@@H]5OC[C@H]6O)[nH]c4cc3Cl)cc2)cc1 [Example 86]
Emax [2]: 314%
EC50 [2]: 4 nM

Cc1nnc(-c2ccc(-c3ccc(-c4nc5nc(O[C@@H]6CO[C@H]7[C@@H]6OC[C@H]7O)[nH]c5cc4Cl)cc3)cc2)o1 [Example 87]
Emax [2]: 285%
EC50 [2]: 3 nM

N#Cc1ccc(-c2ccc(-c3nc4nc(O[C@@H]5CO[C@H]6[C@@H]5OC[C@H]6O)[nH]c4cc3Cl)cc2)c(F)c1 [Example 102]
Emax [2]: 304%
EC50 [2]: 5 nM

CCN(CC)c1ccc(-c2ccc(-c3nc4nc(O[C@@H]5CO[C@H]6[C@@H]5OC[C@H]6O)[nH]c4cc3Cl)cc2)cc1 [Example 105]
Emax [2]: 268%
EC50 [2]: 5 nM

O=C(O)C1CCC(c2ccc(-c3ccc(-c4nc5nc(O[C@@H]6CO[C@H]7[C@@H]6OC[C@H]7O)[nH]c5cc4Cl)cc3)cc2)=N1 (stereo partly drawn) [Example 125]
Emax [2]: 350%
EC50 [2]: 6 nM

O[C@@H]1CO[C@H]2[C@@H]1OC[C@H]2Oc1nc2nc(-c3ccc(-c4ccc(C5Cc6nccn6C5)cc4)cc3)c(Cl)cc2[nH]1 (stereo partly drawn) [Example 126]
Emax [2]: 303%
EC50 [2]: 3 nM

Cn1c(-c2ccc(-c3ccc(-c4nc5nc(O[C@@H]6CO[C@H]7[C@@H]6OC[C@H]7O)[nH]c5cc4Cl)cc3)cc2)cnc1N [Example 127]
Emax [2]: 281%
EC50 [2]: 4 nM

O[C@@H]1CO[C@H]2[C@@H]1OC[C@H]2Oc1nc2nc(-c3ccc(-c4ccc(-n5cc(C(O)(O)C(F)(F)F)nn5)cc4)cc3)c(Cl)cc2[nH]1 [Example 128]
Emax [2]: 286%
EC50 [2]: 2 nM

O=c1ncn(-c2ccc(-c3ccc(-c4nc5nc(O[C@@H]6CO[C@H]7[C@@H]6OC[C@H]7O)[nH]c5cc4Cl)cc3)cc2)[nH]1 [Example 129]
Emax [2]: 305%
EC50 [2]: 1 nM

Oc1ccnc(-c2ccc(-c3ccc(-c4nc5nc(O[C@@H]6CO[C@H]7[C@@H]6OC[C@H]7O)[nH]c5cc4Cl)cc3)cc2)n1 [Example 130]
Emax [2]: 291%
EC50 [2]: 2 nM

Cc1cc(-c2ccc(-c3ccc(-c4nc5nc(O[C@@H]6CO[C@H]7[C@@H]6OC[C@H]7O)[nH]c5cc4Cl)cc3)cc2)c(=O)[nH]n1 [Example 131]
Emax [2]: 289%
EC50 [2]: 3 nM

O[C@@H]1CO[C@H]2[C@@H]1OC[C@H]2Oc1nc2nc(-c3ccc(-c4ccc(C5CNCCO5)cc4)cc3)c(Cl)cc2[nH]1 (stereo partly drawn) [Example 133]
Emax [2]: 359%
EC50 [2]: 1 nM

O=c1[nH]c(-c2ccc(-c3ccc(-c4nc5nc(O[C@@H]6CO[C@H]7[C@@H]6OC[C@H]7O)[nH]c5cc4Cl)cc3)cc2)no1 [Example 138]
Emax [2]: 333%
EC50 [2]: 4 nM

O[C@@H]1CO[C@H]2[C@@H]1OC[C@H]2Oc1nc2nc(-c3ccc(-c4ccc(Cn5ncnn5)cc4)cc3)c(Cl)cc2[nH]1 [Example 142]
Emax [2]: 337%
EC50 [2]: 2 nM

CC1(c2ccc(-c3ccc(-c4nc5nc(O[C@@H]6CO[C@H]7[C@@H]6OC[C@H]7O)[nH]c5cc4Cl)cc3)cc2)COC1 [Example 145]
Emax [2]: 348%
EC50 [2]: 8 nM

OCc1ccc(-c2ccc(-c3nc4nc(O[C@@H]5CO[C@H]6[C@@H]5OC[C@H]6O)[nH]c4cc3Cl)cc2)cc1 [Example 146]
Emax [2]: 354%
EC50 [2]: 4 nM

O[C@@H]1CO[C@H]2[C@@H]1OC[C@H]2Oc1nc2nc(-c3ccc(-c4ccc(Cn5ccnc5)cc4)cc3)c(Cl)cc2[nH]1 [Example 147]
Emax [2]: 348%
EC50 [2]: 4 nM

O=C1CC(c2ccc(-c3ccc(-c4nc5nc(O[C@@H]6CO[C@H]7[C@@H]6OC[C@H]7O)[nH]c5cc4Cl)cc3)cc2)CN1 (stereo partly drawn) [Example 149]
Emax [2]: 322%
EC50 [2]: 2 nM

O=c1ccn(-c2ccc(-c3ccc(-c4nc5nc(O[C@@H]6CO[C@H]7[C@@H]6OC[C@H]7O)[nH]c5cc4Cl)cc3)cc2)[nH]1 [Example 150]
Emax [2]: 322%
EC50 [2]: 1 nM

CN(C)CCOc1ccc(-c2ccc(-c3nc4nc(O[C@@H]5CO[C@H]6[C@@H]5OC[C@H]6O)[nH]c4cc3Cl)cc2)cc1 [Example 151]
Emax [2]: 323%
EC50 [2]: 2 nM
